Data reported in US20240228390A1, “Chelated Nutrients and Methods of Use Thereof” (ICL AMERICA DO SUL S.A., priority 2021, published 2024).

Experiment: Stability testing at different pH levels
Format: physicochemical
Details: Chelate A (glutamic acid + malic acid)
Experimental: Stability testing at different PH levels was performed and turning to Table 1, there is a large range of the chelates' stability, wherein the structure of the chelates can be considered stable.

Stability pH of the chelates, Acid medium (acid limit of stable pH range): 0.20 | Stability pH of the chelates, Alkaline medium (alkaline limit of stable pH range): 11.30
Substance: [Zn(Glu)(Mal)]2Na [Chelate A Zn^2+]
